59 compounds from the METLIN SMRT retention time set (Domingo-Almenara et al. 2019) can be followed below.

This series in a line: gradient 5% acetonitrile 3 min, to 50% in 2 min, to 85% in 15 min, held 3 min, 100 µL/min. Conditions: column: Zorbax Extend-C18 2.1 x 50 mm; eluents: water / acetonitrile, 0.1% formic acid. Put shortly: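 Pure standards were analyzed in mixtures of ~100 molecules using HPLC coupled to a quadrupole time-of-flight mass spectrometer, in both positive and negative ionization mode. Separation used a Zorbax Extend-C18 column (2.1 × 50 mm, 1.8 μm) at 100 μL/min, with water and acetonitrile each containing 0.1% formic acid. Dead and dwell volumes were 40 μL and 900 μL, and data were collected over 3 months. Retention time was read from computationally picked adduct peaks, each inspected manually.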
Compound `Cc1c(Cl)cccc1NC(=O)CCOc1ccccc1` gave an RP-LC retention time of 888 s.
`CNC(=O)[C@@H]1C[C@@H](O)CN1C1CCN(C(=O)C2CCCCC2)CC1`: the RP-LC retention time is 577 s.
For the compound `CC(=O)c1cccc(NC(=O)NC(c2ccccc2)c2nnc(-c3ccccc3)o2)c1` (centres undefined), the RP-LC retention time is 892 s.
Next, `Cc1cccc(-c2noc(C3CCCN3C(=O)Nc3ccccc3F)n2)c1` (centres undefined): 1020 s; `Cc1ccc(CNC(=O)Cn2c(=O)c(CCC(=O)NCC(C)C)nc3ccccc32)cc1`: 814 s.
`CCOC(=O)Cc1c(C)nc2c(-c3ccccc3OC)c(C)nn2c1C` came in with an RP-LC retention time of 943 s.
As for `Cc1cccc(NC(=O)N2CCCC(C)(C(=O)NCc3ccccc3C)C2)c1` (centres undefined), the RP-LC retention time amounted to 959 s.
Consider `Cn1nccc1C(=O)NCc1ccc2c(c1)CCN2C(=O)c1ccc(F)cc1`, for which the RP-LC retention time is 779 s.
Consider `O=C([C@@H]1C[C@H](F)CN1C(=O)c1ccoc1)N1CCCCC1`, for which the RP-LC retention time came out at 576 s.
For the compound `COc1ccc(OC)c(S(=O)(=O)N2CC(=O)N(C3CCCC3)C3(CCCCC3)C2)c1`, the RP-LC retention time is 1090 s.
In turn, `COc1cc(NC(=O)NCC(c2cccnc2)c2cn(C)c3ccccc23)cc(OC)c1OC` (centres undefined) came in with an RP-LC retention time of 661 s.
`CCc1nnc2ccc(-c3noc(-c4ccc(C)c(C)c4)n3)cn12` yielded an RP-LC retention time of 1140 s.
Next, `Cc1nnc([C@@H]2CC(F)(F)CN2C(=O)c2n[nH]c3ccccc23)o1`: 666 s; `Cc1cc(C(=O)NCCCC(=O)Nc2cccc3cccnc23)c(C)o1`: 728 s.
For `Cc1cc(C(=O)Nc2nc(-c3cc4ccccc4o3)cs2)on1`, the RP-LC retention time came out at 948 s.
The result for `O=c1ccc(-c2ccc3c(c2)OCO3)nn1CCc1nc(-c2ccc(Cl)c(F)c2)no1` reads 1050 s; that for `CC(C)c1ccc(-n2nc(N3CCN(C(=O)Cc4cccs4)CC3)ccc2=O)cc1`, 898 s; that for `CCc1nnc(NC(=O)c2ccc3c(c2)c(=O)cc(C)n3CC)s1`, 571 s.
With `Cc1noc(-c2ccc(NC(=O)COc3ccccc3F)cc2)n1`, the RP-LC retention time came out at 832 s.
Next, `CCC(c1cccs1)N1C(=O)[C@H]2CN(S(=O)(=O)Cc3ccccc3F)C[C@H]2C1=O` (some centres undefined): 1000 s; `COc1cccc(CCC(=O)Nc2ccc3ncnc(N4CCCC4)c3c2)c1`: 683 s.
`Clc1ccc(CSc2cc(Cl)ncn2)cc1` returned an RP-LC retention time of 1170 s.
As for `Cc1ccc2c(C(=O)NCCc3cccs3)cc(NC(=O)C3CCC3)cc2n1`, the RP-LC retention time is 660 s.
Next, `COc1ccc(-c2nnc(-c3ccc(C)c(S(=O)(=O)N(C)C)c3)o2)cc1`: 966 s; `Cc1nnc(N2CCCC(C(=O)NCc3cccc(F)c3)C2)c2nn(-c3ccccc3)c(C)c12` (centres undefined): 716 s; `CCOc1ccc(-c2csc(C)n2)cc1S(=O)(=O)Nc1ccc(F)cc1`: 985 s.
Consider `O=c1ccc(N2CCCN(S(=O)(=O)c3ccc(F)cc3F)CC2)nn1-c1ccccc1`, for which the RP-LC retention time was determined as 842 s.
In turn, `CCC(=O)Nc1ccc(-n2cnc(C(=O)NCC3CCCO3)c2)nc1` (centres undefined) returned an RP-LC retention time of 614 s.
In turn, `O=C(NCc1ccncc1)c1cc2cc(Cl)ccc2[nH]1` displayed an RP-LC retention time of 618 s.
Compound `CCOc1ccc(NC(=O)CCSc2nnc(C)s2)cc1` showed an RP-LC retention time of 709 s.
Turning to `Cc1cnc(C(=O)N[C@@H]2CCC[C@@H]2C(=O)NC(C)C)cn1`, the RP-LC retention time came out at 582 s.
For the compound `COc1ccccc1CNC(=O)C1CCN(C(=O)c2nn(C)c3c2CN(C(=O)C(C)C)CC3)CC1`, the RP-LC retention time worked out at 681 s.
Compound `CCN1C(=O)c2cc(S(=O)(=O)Nc3ccc(Cl)cc3F)ccc2Oc2cccnc21` showed an RP-LC retention time of 1070 s.
Compound `O=c1n(Cc2nc(-c3ccc(OC(F)(F)F)cc3)no2)nc2ccc(-c3ccccc3)nn12` had an RP-LC retention time of 1070 s.
In the case of `O=C(CN1CCN(c2ccccc2F)C1=O)Nc1ccc(OC(F)(F)F)cc1`, the RP-LC retention time worked out at 855 s.
With `COc1ccc(F)cc1S(=O)(=O)NCC1(C)CCOCC1`, the RP-LC retention time came to 785 s.
As to `COc1ccc(C2(C(=O)N3CCC(Cc4ncc(C)n4CC4CC4)C3)CC2)cc1` (centres undefined), the RP-LC retention time came to 654 s.
`Cc1nn(C(C)C(=O)NCCC(C)C)c(=O)c2nn(-c3ccccc3)c(C)c12` (centres undefined): the RP-LC retention time worked out at 622 s.
The result for `O=C(c1ccc2c(c1)nnn2CCN1CCOCC1)N1CCSCC1` reads 564 s.
`COc1ccc(Cl)cc1S(=O)(=O)N1CCC2(CC1)c1nccn1CCN2C`: the RP-LC retention time was found to be 646 s.
Compound `Cn1nc(-c2ccccc2)cc1C(=O)N1CCC(C(=O)Nc2nccs2)CC1` returned an RP-LC retention time of 712 s.
Next, `CCC(C)NC(=O)CCc1c(-c2ccc(Cl)cc2)nc2ccccn12` (centres undefined): 653 s; `COCc1ncc(C)n1CC1CN(C(=O)c2cccn2C)C1`: 585 s.
For `O=C(CSCc1ccccc1)N1CCC(c2nnc(-c3ccco3)s2)CC1`, the RP-LC retention time is 837 s.
The result for `Cc1ccc(CN2CCC(CNS(=O)(=O)c3ccc4c(c3)CCCC(=O)N4)C2)cc1` (centres undefined) reads 625 s.
Regarding `Cc1ccc(-c2ncccc2CNS(=O)(=O)c2ccc(Br)s2)cc1`, the RP-LC retention time worked out at 786 s.
In turn, `CCCCS(=O)(=O)N1CCc2nc(-c3ccc(Cl)cc3)ncc2C1` had an RP-LC retention time of 1130 s.
In the case of `Cc1ccc(NC(=O)Cc2c(C)nn(-c3nc(-c4ccc(F)cc4)cs3)c2C)c(C)c1`, the RP-LC retention time stood at 1210 s.
`Cn1c(C(=O)N2CCN(c3ccccn3)CC2)cc2c(=O)oc3ccccc3c21` returned an RP-LC retention time of 607 s.
Next, `COCCOCC(=O)N1[C@@H]2CC[C@H]1CC(NC(=O)c1cnc(C)cn1)C2` (some centres undefined): 579 s; `CCOc1ccccc1NC(=O)Cn1cnc2nc(N3CCCC(C(=O)NC)C3)sc2c1=O` (centres undefined): 667 s; `COC(=O)c1c(-c2ccc(F)cc2)noc1NCc1ccccn1`: 771 s.
For `CCOC(=O)c1noc2nc(C)nc(NC3CCN(Cc4ccccc4)CC3)c12`, the RP-LC retention time is 648 s.
The compound `CCc1cccc(NC(=O)c2cc(C)n3nccc3n2)c1` came in with an RP-LC retention time of 1030 s.
Regarding `COc1ccc(C)cc1NS(=O)(=O)c1ccc2c(c1)CCCC(=O)N2`, the RP-LC retention time came out at 709 s.
Compound `CC(C)c1ccc(S(=O)(=O)Nc2cnc(N3CCNCC3)c(C(=O)NCC3CCCO3)c2)cc1` (centres undefined) showed an RP-LC retention time of 643 s.
Regarding `CCn1ncc(NC(=O)c2ccc(OC)c(OC)c2)c(N2CCOCC2)c1=O`, the RP-LC retention time amounted to 722 s.
The result for `COc1ccc(C2(C(=O)N3CC(c4nc(CCOCc5ccccc5)no4)C3)CC2)cc1` reads 972 s; that for `CCOCCCNC(=O)C1CCN(c2cc(Oc3cccc(C)c3C)ncn2)CC1`, 819 s.
